doi:10.1101/2020.02.10.936898v1 (biorxiv, 2020)

Columns and labels:
HCoV-NL63 M^pro = HCoV-NL63 M^pro (Human coronavirus NL63, UniProt P0C6X5); assay: FRET peptide cleavage assay; assay type: biochemical
CVB3 3C^pro [1] = biological target: T1, CVB3 3C^pro (Coxsackievirus B3, UniProt Q5UEA2); assay: FRET peptide cleavage assay; assay type: biochemical
EV-A71 3C^pro = EV-A71 3C^pro (Human enterovirus 71 (strain BRCR), UniProt Q66478); settings: read-out: EV-A71 3Cpro; inhibitor
CVB3 3C^pro [2] = biological target: T1, CVB3 3C^pro; assay: biochemical
CVB3 (Nancy) = assay: microbe, parasite or virus in culture; design: species or system Huh-T7; settings: Enterovirus B, CVB3, read-out: CVB3 replicon *
EV-A71 = assay: microbe, parasite or virus in culture; design: species or system Huh-T7; settings: Enterovirus A, EVA71, read-out: EV-A71 replicon *

HCoV-NL63 M^pro, sequence (P0C6X5 2940-3242): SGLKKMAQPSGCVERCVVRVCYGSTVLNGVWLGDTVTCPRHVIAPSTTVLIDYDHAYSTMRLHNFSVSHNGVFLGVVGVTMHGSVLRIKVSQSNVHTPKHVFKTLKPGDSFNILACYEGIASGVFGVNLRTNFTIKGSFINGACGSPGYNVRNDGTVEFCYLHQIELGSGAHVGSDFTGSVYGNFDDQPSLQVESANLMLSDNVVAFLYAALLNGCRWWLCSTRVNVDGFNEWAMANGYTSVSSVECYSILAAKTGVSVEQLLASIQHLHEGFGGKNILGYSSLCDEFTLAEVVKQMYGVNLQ
EV-A71 3C^pro, sequence (Q66478 1549-1731): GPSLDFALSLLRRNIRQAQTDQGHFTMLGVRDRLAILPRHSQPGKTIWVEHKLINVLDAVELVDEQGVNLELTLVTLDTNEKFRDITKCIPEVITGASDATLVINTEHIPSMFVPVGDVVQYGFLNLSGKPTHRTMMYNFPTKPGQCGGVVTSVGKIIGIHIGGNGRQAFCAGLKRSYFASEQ

| SMILES | IC50 (HCoV-NL63 M^pro) | IC50 (CVB3 3C^pro [1]) | IC50 (EV-A71 3C^pro) | IC50 (CVB3 3C^pro [2]) | EC50 (CVB3 (Nancy)) | EC50 (EV-A71) |
| --- | --- | --- | --- | --- | --- | --- |
| O=C(/C=C/c1ccccc1)N[C@@H](Cc1ccccc1)C(=O)N[C@@H](C[C@@H]1CCNC1=O)C(=O)C(=O)NCc1ccccc1 [11a, (S)-N-benzyl-3-((S)-2-cinnamamido-3-phenylpropanamido)-2-oxo-4-((S)-2-oxopyrrolidin-3-yl)butanamide] | > 50 µM | 6.56 ± 3.1 µM | – | – | – | – |
| CC(C)C[C@H](NC(=O)/C=C/c1ccccc1)C(=O)N[C@@H](C[C@@H]1CCNC1=O)C(=O)C(=O)NCc1ccccc1 [11n, (S)-N-((S)-4-(benzylamino)-3,4-dioxo-1-((S)-2-oxopyrrolidin-3-yl)butan-2-yl)-2-cinnamamido-4-methylpentanamide] | 1.08 ± 0.09 µM | 3.82 ± 1.21 µM | – | – | – | – |
| O=C(/C=C/c1ccccc1)N[C@@H](CC1CC1)C(=O)N[C@@H](C[C@@H]1CCNC1=O)C(=O)C(=O)NCc1ccccc1 [11s, (S)-N-benzyl-3-((S)-2-cinnamamido-3-cyclopropylpropanamido)-2-oxo-4-((S)-2-oxopyrrolidin-3-yl)butanamide] | 1.37 ± 0.35 µM | 4.25 ± 1.4 µM | – | – | – | – |
| O=C(/C=C/c1ccccc1)N[C@H](C(=O)N[C@@H](C[C@@H]1CCNC1=O)C(=O)C(=O)NCc1ccccc1)C1CC1 [11q, (S)-N-benzyl-3-((S)-2-cinnamamido-2-cyclopropylacetamido)-2-oxo-4-((S)-2-oxopyrrolidin-3-yl)butanamide] | 11.5 ± 5.05 µM | 15.4 ± 4.12 µM | – | – | – | – |
| O=C(NCc1ccccc1)C(=O)[C@H](C[C@@H]1CCNC1=O)NC(=O)[C@H](Cc1ccccc1)NC(=O)c1cn2cc(Br)ccc2n1 [11l] | – | – | > 50 µM | 30.8 ± 12.9 µM | – | – |
| O=C(CCc1ccccc1)N[C@@H](Cc1ccccc1)C(=O)N[C@@H](C[C@@H]1CCNC1=O)C(=O)C(=O)NCc1ccccc1 [11g] | – | – | 4.57 ± 1.04 µM | 3.5 ± 1.06 µM | – | – |
| CC(C)CNC(=O)C(=O)[C@H](C[C@@H]1CCNC1=O)NC(=O)[C@H](CC(C)C)NC(=O)/C=C/c1ccccc1 [11d] | – | – | 17.7 ± 8.78 µM | 6.5 ± 0.58 µM | – | – |
| O=C(NCc1ccccc1)C(=O)[C@H](C[C@@H]1CCNC1=O)NC(=O)[C@H](Cc1ccccc1)NC(=O)c1ccc2c(c1)OCCO2 [11h] | – | – | 4.75 ± 2.73 µM | 3.66 ± 0.79 µM | – | – |
| O=C(/C=C/c1ccccc1)N[C@@H](CC1CCCCC1)C(=O)N[C@@H](C[C@@H]1CCNC1=O)C(=O)C(=O)NCc1ccccc1 [11r, (S)-N-benzyl-3-((S)-2-cinnamamido-3-cyclohexylpropanamido)-2-oxo-4-((S)-2-oxopyrrolidin-3-yl)butanamide] | 12.3 ± 3.56 µM | 0.95 ± 0.15 µM | – | – | 0.45 µM | 0.85 µM |
| O=C(/C=C/c1ccccc1)N[C@@H](Cc1ccc(F)cc1)C(=O)N[C@@H](C[C@@H]1CCNC1=O)C(=O)C(=O)NCc1ccccc1 [11m, (S)-N-benzyl-3-((S)-2-cinnamamido-3-(4-fluorophenyl)propanamido)-2-oxo-4-((S)-2-oxopyrrolidin-3-yl)butanamide] | > 50 µM | 8.69 ± 1.28 µM | – | – | – | – |
| O=C(NCc1ccccc1)C(=O)[C@H](C[C@@H]1CCNC1=O)NC(=O)[C@H](Cc1ccccc1)NC(=O)c1cc2ccccc2o1 [11j] | – | – | 11.3 ± 6.52 µM | 9.19 ± 2.99 µM | – | – |
| O=C(NCc1ccccc1)C(=O)[C@H](C[C@@H]1CCNC1=O)NC(=O)[C@H](Cc1ccccc1)NC(=O)c1cccc2c1OCCO2 [11i] | – | – | 9.74 ± 3.88 µM | 4.82 ± 1.17 µM | – | – |
| C#CC[C@H](NC(=O)/C=C/c1ccccc1)C(=O)N[C@@H](C[C@@H]1CCNC1=O)C(=O)C(=O)NCc1ccccc1 [11p, (S)-N-((S)-4-(benzylamino)-3,4-dioxo-1-((S)-2-oxopyrrolidin-3-yl)butan-2-yl)-2-cinnamamidopent-4-ynamide] | 17.4 ± 3.97 µM | 8.93 ± 2.39 µM | – | – | – | – |
| CCCC[C@H](NC(=O)/C=C/c1ccccc1)C(=O)N[C@@H](C[C@@H]1CCNC1=O)C(=O)C(=O)NCc1ccccc1 [11o, (S)-N-((S)-4-(benzylamino)-3,4-dioxo-1-((S)-2-oxopyrrolidin-3-yl)butan-2-yl)-2-cinnamamidohexanamide] | > 50 µM | 5.2 ± 0.28 µM | – | – | – | – |
| O=C(/C=C/c1ccccc1)N[C@@H](CC1CCCC1)C(=O)N[C@@H](C[C@@H]1CCNC1=O)C(=O)C(=O)NCc1ccccc1 [11u, (S)-N-benzyl-3-((S)-2-cinnamamido-3-cyclopentylpropanamido)-2-oxo-4-((S)-2-oxopyrrolidin-3-yl)butanamide] | 5.41 ± 2.31 µM | 1.93 ± 0.43 µM | – | – | 4.9 µM | 3.65 µM |
| COC(=O)CNC(=O)C(=O)[C@H](C[C@@H]1CCNC1=O)NC(=O)[C@H](Cc1ccccc1)NC(=O)/C=C/c1ccccc1 [11e] | – | – | 11.1 ± 2.64 µM | 9.91 ± 1.84 µM | – | – |
| CC(C)(C)NC(=O)C(=O)[C@H](C[C@@H]1CCNC1=O)NC(=O)[C@H](Cc1ccccc1)NC(=O)/C=C/c1ccccc1 [11c] | – | – | 19 ± 5.79 µM | 9.86 ± 2.68 µM | – | – |
| CCCCNC(=O)C(=O)[C@H](C[C@@H]1CCNC1=O)NC(=O)[C@H](Cc1ccccc1)NC(=O)/C=C/c1ccccc1 [11b] | – | – | 2.38 ± 0.58 µM | 1 ± 0.35 µM | – | – |
| O=C(NCc1ccccc1)C(=O)[C@H](C[C@@H]1CCNC1=O)NC(=O)[C@H](Cc1ccccc1)NC(=O)c1cc2ccccc2s1 [11k] | – | – | > 50 µM | 18.6 ± 0.58 µM | – | – |
| O=C(/C=C/c1ccccc1)N[C@@H](CC1CCC1)C(=O)N[C@@H](C[C@@H]1CCNC1=O)C(=O)C(=O)NCc1ccccc1 [11t, (S)-N-benzyl-3-((S)-2-cinnamamido-3-cyclobutylpropanamido)-2-oxo-4-((S)-2-oxopyrrolidin-3-yl)butanamide] | 3.43 ± 2.45 µM | 4.78 ± 1.13 µM | – | – | 2.2 µM | – |
| CC(C)(C)OC(=O)N[C@@H](C[C@@H]1CCNC1=O)C(=O)C(=O)NCc1ccccc1 [11f, tert-Butyl ((S)-4-(benzylamino)-3,4-dioxo-1-((S)-2-oxopyrrolidin-3-yl)butan-2-yl)carbamate] | > 50 µM | > 50 µM | – | – | – | – |
